What was measured:
Experiment in all cases: relative viability (nuclei count vs DMSO), 5 days (fraction); higher = more cells survive
Palbociclib + Alpelisib = compound: CC(=O)c1c(C)c2cnc(Nc3ccc(N4CCNCC4)cn3)nc2n(C2CCCC2)c1=O [Palbociclib] + Cc1nc(NC(=O)N2CCC[C@H]2C(N)=O)sc1-c1ccnc(C(C)(C)C(F)(F)F)c1 [Alpelisib] (partner 2 µM)
Outline: (§1)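 One day after seeding in 1536-well plates, lung cancer cell lines were dosed by pin tool. Dosing was either single-drug or a fixed anchor-drug dose plus five library-drug doses (not always all listed) in √10 steps. After 5 days, nuclei were stained in one fix-and-stain step and counted on 4× images, and relative viability is the nuclei count of treated wells over that of vehicle wells, given as the median of duplicate plates.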

Palbociclib + Crizotinib = compound: CC(=O)c1c(C)c2cnc(Nc3ccc(N4CCNCC4)cn3)nc2n(C2CCCC2)c1=O [Palbociclib] + C[C@@H](Oc1cc(-c2cnn(C3CCNCC3)c2)cnc1N)c1c(Cl)ccc(F)c1Cl [Crizotinib] (partner 1 µM)
Outline: as §1

Palbociclib + Dasatinib = compound: CC(=O)c1c(C)c2cnc(Nc3ccc(N4CCNCC4)cn3)nc2n(C2CCCC2)c1=O [Palbociclib] + Cc1nc(Nc2ncc(C(=O)Nc3c(C)cccc3Cl)s2)cc(N2CCN(CCO)CC2)n1 [Dasatinib] (partner 0.075 µM)
Outline: as §1

Palbociclib + Pictilisib = compound: CC(=O)c1c(C)c2cnc(Nc3ccc(N4CCNCC4)cn3)nc2n(C2CCCC2)c1=O [Palbociclib] + CS(=O)(=O)N1CCN(Cc2cc3nc(-c4cccc5[nH]ncc45)nc(N4CCOCC4)c3s2)CC1 [Pictilisib] (partner 1 µM)
Outline: as §1

Cell Line	relative viability (Palbociclib + Alpelisib; first compound 0.01 µM)	relative viability (Palbociclib + Alpelisib; first compound 0.03162 µM)	relative viability (Palbociclib + Alpelisib; first compound 0.1 µM)	relative viability (Palbociclib + Alpelisib; first compound 0.3162 µM)	relative viability (Palbociclib + Alpelisib; first compound 1 µM)	relative viability (Palbociclib + Crizotinib; first compound 0.01 µM)	relative viability (Palbociclib + Crizotinib; first compound 0.03162 µM)	relative viability (Palbociclib + Crizotinib; first compound 0.1 µM)	relative viability (Palbociclib + Crizotinib; first compound 0.3162 µM)	relative viability (Palbociclib + Crizotinib; first compound 1 µM)	relative viability (Palbociclib + Dasatinib; first compound 0.01 µM)	relative viability (Palbociclib + Dasatinib; first compound 0.03162 µM)	relative viability (Palbociclib + Dasatinib; first compound 0.1 µM)	relative viability (Palbociclib + Dasatinib; first compound 0.3162 µM)	relative viability (Palbociclib + Dasatinib; first compound 1 µM)	relative viability (Palbociclib + Pictilisib; first compound 0.01 µM)	relative viability (Palbociclib + Pictilisib; first compound 0.03162 µM)	relative viability (Palbociclib + Pictilisib; first compound 0.1 µM)	relative viability (Palbociclib + Pictilisib; first compound 0.3162 µM)	relative viability (Palbociclib + Pictilisib; first compound 1 µM)
NCI-H3122	0.76	0.667	0.688	0.46	0.353	0.246	0.244	0.252	0.188	0.175	0.762	0.546	0.386	0.414	0.231	0.536	0.523	0.449	0.332	0.234
ABC-1	1.28	0.91	0.785	0.751	0.412	0.935	1.16	0.93	0.832	0.591	0.546	0.537	0.493	0.457	0.377	0.756	0.758	0.532	0.516	0.423
201T	0.995	1.04	0.884	0.974	0.728	1.01	0.992	0.922	0.93	0.806	0.54	0.494	0.579	0.388	0.324	0.68	0.61	0.622	0.525	0.464
NCI-H1734	0.637	0.588	0.539	0.537	0.374	0.685	0.622	0.52	0.499	0.398	0.461	0.365	0.393	0.296	0.254	0.39	0.387	0.331	0.344	0.235
HCC-78	0.305	0.242	0.217	0.263	0.216	0.375	0.328	0.266	0.27	0.269	0.348	0.361	0.348	0.26	0.215	0.206	0.202	0.19	0.251	0.154
EKVX	1.04	0.716	0.661	0.604	0.401	1.13	0.898	0.818	0.781	0.499	0.467	0.444	0.502	0.455	0.372	0.478	0.363	0.223	0.281	0.249
BEN	1.04	0.847	0.634	0.834	0.499	0.831	0.701	0.719	0.722	0.475	0.39	0.324	0.229	0.235	0.208	0.612	0.425	0.402	0.411	0.3
HARA	0.82	0.718	0.557	0.405	0.31	1.04	0.945	0.836	0.766	0.499	0.27		0.24	0.193	0.149	0.406	0.347	0.225	0.202	0.169

From the supplement of paper PMC10307832
